# Legend:
# bedstraw = experiment: Test B pre/postemergence bedstraw; type: in vivo, Galium aparine; details: Preemergence
# From the text: (§1) Seeds of bedstraw (Galium aparine), blackgrass (Alopecurus myosuroides), surinam grass (Brachiaria decumbens), cocklebur (Xanthium strumarium), corn (Zea mays), crabgrass (Digitaria sanguinalis), giant foxtail (Setaria faberii), morningglory (Ipomoea hederacea), pigweed (Amaranthus retroflexus), rape (Brassica napus), soybean (Glycine max), sugar beet (Beta vulgaris), velvetleaf (Abutilon theophrasti), wheat (Triticum aestivum), wild oat (Avena fatua) and purple nutsedge (Cyperus rotundus) tubers were planted and treated preemnergence with test chemicals formulated in a non-phytotoxic solvent mixture which included a surfactant.
# (§2) At the same time, these crop and weed species were also treated with postemergence applications of test chemicals formulated in the same manner. Plants ranged in height from 2 to 18 cm (1- to 4-leaf stage) for postemergence treatments. Plant species in the flood test consisted of rice (Oryza sativa), smallflower flatsedge (Cyperus difformis), duck salad (Heteranthera limosa) and bamyardgrass (Echinochloa crus-galli) grown to the 2-leaf stage for testing. Treated plants and controls were maintained in a greenhouse for twelve to sixteen days, after which all species were compared to controls and visually evaluated. Plant response ratings, summarized in Table B, are based on a scale of 0 to 10 where 0 is no effect and 10 is complete control. A dash (−) response means no test result.
# blackgrass = experiment: Test B pre/postemergence blackgrass; type: in vivo, Alopecurus myosuroides
# From the text: as §1, §2
# surinam grass = experiment: Test B pre/postemergence surinam grass; type: in vivo, Brachiaria decumbens
# From the text: as §1, §2
# cocklebur = experiment: Test B pre/postemergence cocklebur; type: in vivo, Xanthium strumarium
# From the text: as §1, §2
# corn = experiment: Test B pre/postemergence corn; type: in vivo, Zea mays
# From the text: as §1, §2
# crabgrass = experiment: Test B pre/postemergence crabgrass; type: in vivo, Digitaria sanguinalis
# From the text: as §1, §2
# giant foxtail = experiment: Test B pre/postemergence giant foxtail; type: in vivo, Setaria faberii
# From the text: as §1, §2
# morningglory = experiment: Test B pre/postemergence morningglory; type: in vivo, Ipomoea hederacea
# Method in brief: (§3)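 Response is a visual 0-to-10 score relative to untreated plants, where 0 means no effect and 10 means complete control, taken twelve to sixteen days after application. Treatments went onto soil at planting and onto foliage of 1- to 4-leaf plants, using a surfactant-containing non-phytotoxic solvent.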
# pigweed = experiment: Test B pre/postemergence pigweed; type: in vivo, Amaranthus retroflexus
# From the text: as §1, §2
# rape = experiment: Test B pre/postemergence rape; type: in vivo, Brassica napus
# From the text: as §1, §2
# soybean = experiment: Test B pre/postemergence soybean; type: in vivo, Glycine max
# Method in brief: as §3
# sugar beet = experiment: Test B pre/postemergence sugar beet; type: in vivo, Beta vulgaris
# From the text: as §1, §2
# velvetleaf = experiment: Test B pre/postemergence velvetleaf; type: in vivo, Abutilon theophrasti
# From the text: as §1, §2
# wheat = experiment: Test B pre/postemergence wheat; type: in vivo, Triticum aestivum
# From the text: as §1, §2
# wild oat = experiment: Test B pre/postemergence wild oat; type: in vivo, Avena fatua
# From the text: as §1, §2
# purple nutsedge = experiment: Test B pre/postemergence purple nutsedge; type: in vivo, Cyperus rotundus
# From the text: as §1, §2
# [1] = Postemergence, Rate 62 g/ha, scale of 0 to 10, 0 is no effect, 10 is complete control
# [2] = Postemergence, Rate 125 g/ha, scale 0 to 10, 0 is no effect, 10 is complete control
# [3] = Postemergence, Rate 500 g/ha, scale 0 to 10, 0 is no effect, 10 is complete control
# [4] = Preemergence, Rate 62 g/ha, scale of 0 to 10 where 0 is no effect and 10 is complete control
# [5] = Preemergence, Rate 125 g/ha, scale 0 to 10, 0 is no effect, 10 is complete control
# [6] = Preemergence, Rate 500 g/ha, scale of 0 to 10 where 0 is no effect and 10 is complete control
# [7] = Rate 250 g/ha, Postemergence, scale of 0 to 10 where 0 is no effect and 10 is complete control
compound,measurement,setting,value
CC(C)N(C(=O)n1oc(=O)n(CCC(F)(F)F)c1=O)c1ccc(F)cc1F [Compound 525],"Plant response rating, Bedstraw","bedstraw; Rate 62 g/ha, scale of 0 to 10 where 0 is no effect and 10 is complete control",0
same,Bedstraw plant response rating,"bedstraw; Rate 125 g/ha, scale 0 to 10, 0 is no effect, 10 is complete control",0
same,Bedstraw plant response rating (0 to 10 scale),bedstraw; Rate 250 g/ha,0
same,Bedstraw plant response rating,"bedstraw; Rate 500 g/ha, scale of 0 to 10 where 0 is no effect and 10 is complete control",0
same,Blackgrass plant response rating,blackgrass; [1],4
same,Blackgrass plant response rating,blackgrass; [2],6
same,"Plant response rating, Blackgrass",blackgrass; [3],8
same,"Plant response rating, Blackgrass",blackgrass; [4],8
same,Blackgrass plant response rating,blackgrass; [5],7
same,Blackgrass plant response rating,blackgrass; [6],8
same,"Plant response rating, Blackgrass",blackgrass; [7],8
same,B. signalgrass plant response rating,surinam grass; [1],0
same,B. signalgrass plant response rating,surinam grass; [2],2
same,"Plant response rating, B. signalgrass",surinam grass; [3],8
same,"Plant response rating, B. signalgrass",surinam grass; [4],9
same,B. signalgrass plant response rating,surinam grass; [6],9
same,"Plant response rating, B. signalgrass",surinam grass; [7],2
same,Cocklebur plant response rating,cocklebur; [1],2
same,Cocklebur plant response rating,cocklebur; [2],2
same,"Plant response rating, Cocklebur",cocklebur; [3],2
same,"Plant response rating, Cocklebur",cocklebur; [4],0
same,Cocklebur plant response rating,cocklebur; [5],0
same,Cocklebur plant response rating (0 to 10 scale),"cocklebur; Preemergence, Rate 250 g/ha",0
same,"Plant response rating, Cocklebur",cocklebur; [7],2
same,Corn plant response rating,corn; [1],0
same,Corn plant response rating,corn; [2],0
same,"Plant response rating, Corn",corn; [3],2
same,"Plant response rating, Corn",corn; [4],0
same,Corn plant response rating,corn; [5],0
same,Corn plant response rating (0 to 10 scale),"corn; Preemergence, Rate 250 g/ha",4
same,Corn plant response rating,corn; [6],8
same,"Plant response rating, Corn",corn; [7],2
same,Crabgrass plant response rating,crabgrass; [1],6
same,"Plant response rating, Crabgrass",crabgrass; [3],9
same,"Plant response rating, Crabgrass",crabgrass; [4],9
same,Crabgrass plant response rating,crabgrass; [5],9
same,Crabgrass plant response rating (0 to 10 scale),"crabgrass; Preemergence, Rate 250 g/ha",10
same,Crabgrass plant response rating,crabgrass; [6],10
same,"Plant response rating, Crabgrass",crabgrass; [7],9
same,Giant foxtail plant response rating,giant foxtail; [1],5
same,Giant foxtail plant response rating,giant foxtail; [2],8
same,"Plant response rating, Giant foxtail",giant foxtail; [3],9
same,"Plant response rating, Giant foxtail",giant foxtail; [4],9
same,Giant foxtail plant response rating,giant foxtail; [5],10
same,Giant foxtail plant response rating (0 to 10 scale),"giant foxtail; Preemergence, Rate 250 g/ha",10
same,Giant foxtail plant response rating,giant foxtail; [6],10
same,"Plant response rating, Giant foxtail",giant foxtail; [7],9
same,Morningglory plant response rating,morningglory; [1],2
same,Morningglory plant response rating,morningglory; [2],2
same,"Plant response rating, Morningglory",morningglory; [3],3
same,"Plant response rating, Morningglory",morningglory; [4],0
same,Morningglory plant response rating,morningglory; [5],0
same,Morningglory plant response rating (0 to 10 scale),"morningglory; Preemergence, Rate 250 g/ha",0
same,Morningglory plant response rating,morningglory; [6],6
same,"Plant response rating, Morningglory",morningglory; [7],2
same,Redroot pigweed plant response rating,pigweed; [1],2
same,Redroot pigweed plant response rating,pigweed; [2],2
same,"Plant response rating, Redroot pigweed",pigweed; [3],8
same,"Plant response rating, Redroot pigweed",pigweed; [4],0
same,Redroot pigweed plant response rating,pigweed; [5],0
same,Redroot pigweed plant response rating,pigweed; [6],3
same,"Plant response rating, Redroot pigweed",pigweed; [7],9
same,Rape plant response rating,rape; [1],0
same,Rape plant response rating,rape; [2],0
same,"Plant response rating, Rape",rape; [3],8
same,"Plant response rating, Rape",rape; [4],0
same,Rape plant response rating,rape; [5],0
same,Rape plant response rating,rape; [6],4
same,"Plant response rating, Rape",rape; [7],3
same,Soybean plant response rating,soybean; [1],3
same,Soybean plant response rating,soybean; [2],5
same,"Plant response rating, Soybean",soybean; [4],0
same,Soybean plant response rating,soybean; [5],0
same,Soybean plant response rating (0 to 10 scale),"soybean; Preemergence, Rate 250 g/ha",0
same,Soybean plant response rating,soybean; [6],0
same,"Plant response rating, Soybean",soybean; [7],5
same,Sugarbeets plant response rating,sugar beet; [1],0
same,Sugarbeets plant response rating,sugar beet; [2],0
same,"Plant response rating, Sugarbeets",sugar beet; [3],8
same,"Plant response rating, Sugarbeets",sugar beet; [4],5
same,Sugarbeets plant response rating,sugar beet; [5],8
same,Sugarbeets plant response rating,sugar beet; [6],9
same,"Plant response rating, Sugarbeets",sugar beet; [7],6
same,Velvetleaf plant response rating,velvetleaf; [1],2
same,Velvetleaf plant response rating,velvetleaf; [2],3
same,"Plant response rating, Velvetleaf",velvetleaf; [3],3
same,"Plant response rating, Velvetleaf",velvetleaf; [4],2
same,Velvetleaf plant response rating,velvetleaf; [5],3
same,Velvetleaf plant response rating (0 to 10 scale),"velvetleaf; Preemergence, Rate 250 g/ha",3
same,Velvetleaf plant response rating,velvetleaf; [6],4
same,"Plant response rating, Velvetleaf",velvetleaf; [7],3
same,Wheat plant response rating,wheat; [1],0
same,Wheat plant response rating,wheat; [2],2
same,"Plant response rating, Wheat",wheat; [3],5
same,"Plant response rating, Wheat",wheat; [4],3
same,Wheat plant response rating,wheat; [6],3
same,"Plant response rating, Wheat",wheat; [7],5
same,Wild oats plant response rating,wild oat; [1],0
same,Wild oats plant response rating,wild oat; [2],2
same,"Plant response rating, Wild oats",wild oat; [3],6
same,"Plant response rating, Wild oats",wild oat; [4],5
same,Wild oats plant response rating,wild oat; [6],8
same,"Plant response rating, Wild oats",wild oat; [7],4
same,Nutsedge plant response rating,purple nutsedge; [1],0
same,Nutsedge plant response rating,purple nutsedge; [2],0
same,"Plant response rating, Nutsedge",purple nutsedge; [3],5
same,"Plant response rating, Nutsedge",purple nutsedge; [4],0
same,Nutsedge plant response rating,purple nutsedge; [5],0
same,Nutsedge plant response rating (0 to 10 scale),"purple nutsedge; Preemergence, Rate 250 g/ha",0
same,Nutsedge plant response rating,purple nutsedge; [6],0
same,"Plant response rating, Nutsedge",purple nutsedge; [7],5
